Positions of bridges follow the written chain, without caps; N, C: chain ends. Residues, ends and D or L forms follow the SMILES beside them.
How the values were obtained:
Experiment in all cases: cell-based
[1] = target: hNav1.5 (Homo sapiens, UniProt Q14524); conditions: IonWorks Quattro; clamped to −110 mV, depolarized to −10 mV, 5 min after compound; n=2; read-out: IWQ Use Nav1.5
[2] = target: hNav1.7 (Homo sapiens, UniProt Q15858); assay type: cell-based; conditions: IonWorks Quattro; clamped to −110 mV, depolarized to −10 mV, 5 min after compound; n=2; read-out: IWQ Use Nav1.7
Chain of hNav1.7 (Q15858 whole entry, looked up): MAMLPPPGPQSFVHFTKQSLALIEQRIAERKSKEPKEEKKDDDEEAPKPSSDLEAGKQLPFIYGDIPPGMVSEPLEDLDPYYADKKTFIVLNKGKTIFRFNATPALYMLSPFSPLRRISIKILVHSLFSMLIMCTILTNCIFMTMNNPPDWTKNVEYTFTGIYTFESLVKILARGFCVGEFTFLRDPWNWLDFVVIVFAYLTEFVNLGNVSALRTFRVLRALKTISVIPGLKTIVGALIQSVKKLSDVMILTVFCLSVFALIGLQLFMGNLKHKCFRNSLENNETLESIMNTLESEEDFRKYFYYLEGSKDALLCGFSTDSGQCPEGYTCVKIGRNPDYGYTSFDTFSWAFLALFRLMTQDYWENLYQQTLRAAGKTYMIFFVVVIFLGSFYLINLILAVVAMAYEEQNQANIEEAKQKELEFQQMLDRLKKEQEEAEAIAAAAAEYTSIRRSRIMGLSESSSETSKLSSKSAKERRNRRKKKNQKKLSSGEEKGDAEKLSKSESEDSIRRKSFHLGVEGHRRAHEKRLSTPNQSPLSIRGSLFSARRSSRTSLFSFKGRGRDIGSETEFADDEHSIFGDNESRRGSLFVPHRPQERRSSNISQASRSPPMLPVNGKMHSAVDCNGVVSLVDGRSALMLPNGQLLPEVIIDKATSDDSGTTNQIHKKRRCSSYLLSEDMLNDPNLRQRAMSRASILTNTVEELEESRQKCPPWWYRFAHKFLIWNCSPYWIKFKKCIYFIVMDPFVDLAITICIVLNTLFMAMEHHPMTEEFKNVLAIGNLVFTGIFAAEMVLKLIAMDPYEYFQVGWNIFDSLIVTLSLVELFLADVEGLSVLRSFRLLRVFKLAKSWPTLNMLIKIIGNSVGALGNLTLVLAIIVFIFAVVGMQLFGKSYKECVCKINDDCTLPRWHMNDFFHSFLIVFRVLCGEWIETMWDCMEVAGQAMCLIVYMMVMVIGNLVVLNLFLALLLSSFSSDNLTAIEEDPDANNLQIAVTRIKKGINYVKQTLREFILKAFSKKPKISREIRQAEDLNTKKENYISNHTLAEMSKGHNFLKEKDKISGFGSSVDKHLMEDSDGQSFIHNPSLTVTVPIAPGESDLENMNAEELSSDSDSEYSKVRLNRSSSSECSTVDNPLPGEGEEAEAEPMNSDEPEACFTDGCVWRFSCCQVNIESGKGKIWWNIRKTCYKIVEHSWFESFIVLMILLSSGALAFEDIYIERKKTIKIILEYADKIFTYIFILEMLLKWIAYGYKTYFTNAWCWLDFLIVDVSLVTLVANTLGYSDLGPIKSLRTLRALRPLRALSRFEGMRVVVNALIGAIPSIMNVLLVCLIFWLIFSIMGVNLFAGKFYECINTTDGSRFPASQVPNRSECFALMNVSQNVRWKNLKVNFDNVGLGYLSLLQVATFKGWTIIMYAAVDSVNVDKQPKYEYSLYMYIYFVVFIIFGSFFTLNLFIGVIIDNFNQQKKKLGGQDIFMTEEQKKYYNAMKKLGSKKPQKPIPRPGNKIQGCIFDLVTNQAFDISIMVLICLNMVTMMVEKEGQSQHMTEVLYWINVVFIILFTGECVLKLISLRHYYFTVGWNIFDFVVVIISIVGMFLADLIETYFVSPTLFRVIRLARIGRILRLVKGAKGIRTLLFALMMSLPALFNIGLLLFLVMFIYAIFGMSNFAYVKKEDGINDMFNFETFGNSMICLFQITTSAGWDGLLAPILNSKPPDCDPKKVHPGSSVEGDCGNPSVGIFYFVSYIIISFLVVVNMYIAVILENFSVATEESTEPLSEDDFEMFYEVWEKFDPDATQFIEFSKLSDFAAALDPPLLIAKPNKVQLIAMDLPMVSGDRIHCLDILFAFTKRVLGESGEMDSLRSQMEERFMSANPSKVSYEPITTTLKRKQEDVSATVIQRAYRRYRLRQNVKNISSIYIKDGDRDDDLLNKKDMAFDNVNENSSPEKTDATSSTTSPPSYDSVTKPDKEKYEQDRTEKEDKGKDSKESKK

[3] = target: hNav1.3 (Homo sapiens, UniProt Q9NY46); conditions: IonWorks Quattro; clamped to −110 mV, depolarized to −10 mV, 5 min after compound; n=2; read-out: IWQ Use Nav1.3
Chain of hNav1.3 (Q9NY46 whole entry, looked up): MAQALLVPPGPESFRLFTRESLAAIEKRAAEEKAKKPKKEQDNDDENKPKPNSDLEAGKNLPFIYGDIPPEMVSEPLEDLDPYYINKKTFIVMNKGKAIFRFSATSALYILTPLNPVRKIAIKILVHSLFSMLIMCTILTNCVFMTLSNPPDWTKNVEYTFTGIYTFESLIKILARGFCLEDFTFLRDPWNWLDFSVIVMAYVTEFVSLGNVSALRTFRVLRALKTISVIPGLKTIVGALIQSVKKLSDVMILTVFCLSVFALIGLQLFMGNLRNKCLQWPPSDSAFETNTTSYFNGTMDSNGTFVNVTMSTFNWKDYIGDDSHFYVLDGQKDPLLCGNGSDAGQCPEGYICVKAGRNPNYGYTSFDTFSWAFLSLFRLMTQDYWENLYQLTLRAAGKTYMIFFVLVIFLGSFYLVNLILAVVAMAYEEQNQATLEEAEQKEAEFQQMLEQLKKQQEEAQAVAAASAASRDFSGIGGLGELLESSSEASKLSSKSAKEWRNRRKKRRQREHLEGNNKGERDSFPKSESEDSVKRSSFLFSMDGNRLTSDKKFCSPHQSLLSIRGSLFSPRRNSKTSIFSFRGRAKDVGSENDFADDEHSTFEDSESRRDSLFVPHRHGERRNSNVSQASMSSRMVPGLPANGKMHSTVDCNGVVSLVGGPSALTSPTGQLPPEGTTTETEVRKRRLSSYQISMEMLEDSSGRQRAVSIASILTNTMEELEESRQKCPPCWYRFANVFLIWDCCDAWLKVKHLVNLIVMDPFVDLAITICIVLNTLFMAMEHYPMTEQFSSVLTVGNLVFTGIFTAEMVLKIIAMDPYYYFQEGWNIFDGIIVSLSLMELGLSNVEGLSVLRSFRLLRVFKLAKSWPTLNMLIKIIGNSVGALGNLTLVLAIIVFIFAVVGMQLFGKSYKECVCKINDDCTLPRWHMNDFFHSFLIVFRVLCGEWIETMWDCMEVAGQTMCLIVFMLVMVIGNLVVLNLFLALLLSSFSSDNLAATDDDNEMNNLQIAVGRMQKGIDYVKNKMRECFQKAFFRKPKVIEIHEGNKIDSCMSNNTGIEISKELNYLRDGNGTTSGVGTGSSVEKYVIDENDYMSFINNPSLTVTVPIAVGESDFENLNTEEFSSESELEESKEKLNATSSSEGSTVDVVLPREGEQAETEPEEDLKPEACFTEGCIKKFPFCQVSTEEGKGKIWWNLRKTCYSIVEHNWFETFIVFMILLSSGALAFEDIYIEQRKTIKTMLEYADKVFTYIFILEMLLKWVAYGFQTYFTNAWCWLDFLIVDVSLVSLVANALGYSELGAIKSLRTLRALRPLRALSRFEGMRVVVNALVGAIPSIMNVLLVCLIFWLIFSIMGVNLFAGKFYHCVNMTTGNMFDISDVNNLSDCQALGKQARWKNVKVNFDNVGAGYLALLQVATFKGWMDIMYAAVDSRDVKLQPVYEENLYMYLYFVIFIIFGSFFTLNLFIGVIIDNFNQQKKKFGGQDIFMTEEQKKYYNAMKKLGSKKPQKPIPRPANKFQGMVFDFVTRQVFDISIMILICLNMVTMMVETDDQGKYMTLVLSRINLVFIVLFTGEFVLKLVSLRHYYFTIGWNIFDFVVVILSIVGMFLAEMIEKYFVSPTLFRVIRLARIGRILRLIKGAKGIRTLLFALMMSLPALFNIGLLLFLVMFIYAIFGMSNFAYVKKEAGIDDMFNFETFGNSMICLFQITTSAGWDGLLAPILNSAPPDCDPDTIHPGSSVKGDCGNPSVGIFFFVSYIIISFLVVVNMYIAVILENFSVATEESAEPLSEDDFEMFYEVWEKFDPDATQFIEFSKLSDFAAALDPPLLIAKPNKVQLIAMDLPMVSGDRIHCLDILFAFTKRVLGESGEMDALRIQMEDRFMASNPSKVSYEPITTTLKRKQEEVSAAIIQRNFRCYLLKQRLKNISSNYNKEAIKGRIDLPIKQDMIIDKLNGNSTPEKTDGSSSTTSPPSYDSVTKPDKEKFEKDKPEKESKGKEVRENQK

Compound	IC50 [1] [nM]	IC50 [2] [nM]	IC50 [3] [nM]
CC[C@H](C)[C@@H]1NC(=O)[C@@H]2CSSC[C@@H]3NC(=O)[C@H](C(C)C)NC(=O)[C@H](CC(C)C)NC(=O)[C@H](CC(N)=O)NC(=O)[C@@H]4CCCN4C(=O)[C@H](CCCNC(=N)N)NC(=O)[C@H](CSSC[C@H](NC(=O)[C@@H](N)CC(=O)O)C(=O)N[C@@H](CC(C)C)C(=O)NCC(=O)N[C@@H](Cc4ccccc4)C(=O)N[C@@H](c4ccccc4)C(=O)N[C@@H](CCCNC(=N)N)C(=O)N[C@@H](CCCCN)C(=O)N2)NC(=O)[C@H](CSSC[C@@H](C(=O)N[C@@H](CCCCN)C(=O)N[C@@H](Cc2ccc(O)cc2)C(=O)N[C@H](C(=O)N[C@@H](Cc2ccccc2)C(N)=O)C(C)C)NC(=O)[C@H](Cc2c[nH]c4ccccc24)NC(=O)[C@H](CCCCN)NC(=O)[C@H](Cc2c[nH]cn2)NC(=O)[C@H]([C@@H](C)O)NC(=O)[C@H](CCCNC(=N)N)NC(=O)[C@H](CO)NC3=O)NC(=O)[C@H](CCCCN)NC(=O)[C@H](CC(=O)O)NC(=O)[C@H](CC(N)=O)NC(=O)[C@H](CC(=O)O)NC(=O)[C@@H]2CCCN2C1=O [SEQ ID NO: 288]	> 5000	150	90
CC[C@H](C)[C@@H]1NC(=O)[C@@H]2CSSC[C@@H]3NC(=O)[C@H](C(C)C)NC(=O)[C@H](CC(C)C)NC(=O)[C@H](CC(N)=O)NC(=O)[C@@H]4CCCN4C(=O)[C@H](CCCNC(=N)N)NC(=O)[C@H](CSSC[C@H](NC(=O)[C@@H](N)CC(=O)O)C(=O)N[C@@H](CC(C)C)C(=O)NCC(=O)N[C@@H](Cc4ccccc4)C(=O)N(C)[C@@H](Cc4c[nH]c5ccccc45)C(=O)N[C@@H](CCCNC(=N)N)C(=O)N[C@@H](CCCCN)C(=O)N2)NC(=O)[C@H](CSSC[C@@H](C(=O)N[C@@H](CCCCN)C(=O)N[C@@H](Cc2ccc(O)cc2)C(=O)N[C@H](C(=O)N[C@@H](Cc2ccccc2)C(N)=O)C(C)C)NC(=O)[C@H](Cc2c[nH]c4ccccc24)NC(=O)[C@H](CCCCN)NC(=O)[C@H](Cc2c[nH]cn2)NC(=O)[C@H]([C@@H](C)O)NC(=O)[C@H](CCCNC(=N)N)NC(=O)[C@H](CO)NC3=O)NC(=O)[C@H](CCCCN)NC(=O)[C@H](CC(=O)O)NC(=O)[C@H](CC(N)=O)NC(=O)[C@H](CC(=O)O)NC(=O)[C@@H]2CCCN2C1=O [SEQ ID NO: 289]	21400	140	240
CC[C@H](C)[C@@H]1NC(=O)[C@@H]2CSSC[C@@H]3NC(=O)[C@H](C(C)C)NC(=O)[C@H](CC(C)C)NC(=O)[C@H](CC(N)=O)NC(=O)[C@@H]4CCCN4C(=O)[C@H](CCCNC(=N)N)NC(=O)[C@H](CSSC[C@H](NC(=O)[C@@H](N)CC(=O)O)C(=O)N[C@@H](CC(C)C)C(=O)NCC(=O)N[C@@H](Cc4ccccc4)C(=O)N(C)[C@@H](Cc4ccccc4)C(=O)N[C@@H](CCCNC(=N)N)C(=O)N[C@@H](CCCCN)C(=O)N2)NC(=O)[C@H](CSSC[C@@H](C(=O)N[C@@H](CCCCN)C(=O)N[C@@H](Cc2ccc(O)cc2)C(=O)N[C@H](C(=O)N[C@@H](Cc2ccccc2)C(N)=O)C(C)C)NC(=O)[C@H](Cc2c[nH]c4ccccc24)NC(=O)[C@H](CCCCN)NC(=O)[C@H](Cc2c[nH]cn2)NC(=O)[C@H]([C@@H](C)O)NC(=O)[C@H](CCCNC(=N)N)NC(=O)[C@H](CO)NC3=O)NC(=O)[C@H](CCCCN)NC(=O)[C@H](CC(=O)O)NC(=O)[C@H](CC(N)=O)NC(=O)[C@H](CC(=O)O)NC(=O)[C@@H]2CCCN2C1=O [SEQ ID NO: 290]	10600	240	140
CC[C@H](C)[C@@H]1NC(=O)[C@@H]2CSSC[C@@H]3NC(=O)[C@H](C(C)C)NC(=O)[C@H](CC(C)C)NC(=O)[C@H](CC(N)=O)NC(=O)[C@@H]4CCCN4C(=O)[C@H](CCCNC(=N)N)NC(=O)[C@H](CSSC[C@H](NC(=O)[C@@H](N)CC(=O)O)C(=O)N[C@@H](CC(C)C)C(=O)NCC(=O)N[C@@H](Cc4ccccc4)C(=O)N[C@@H](Cc4cn(C)c5ccccc45)C(=O)N[C@@H](CCCNC(=N)N)C(=O)N[C@@H](CCCCN)C(=O)N2)NC(=O)[C@H](CSSC[C@@H](C(=O)N[C@@H](CCCCN)C(=O)N[C@@H](Cc2ccc(O)cc2)C(=O)N[C@H](C(=O)N[C@@H](Cc2ccccc2)C(N)=O)C(C)C)NC(=O)[C@H](Cc2c[nH]c4ccccc24)NC(=O)[C@H](CCCCN)NC(=O)[C@H](Cc2c[nH]cn2)NC(=O)[C@H]([C@@H](C)O)NC(=O)[C@H](CCCNC(=N)N)NC(=O)[C@H](CO)NC3=O)NC(=O)[C@H](CCCCN)NC(=O)[C@H](CC(=O)O)NC(=O)[C@H](CC(N)=O)NC(=O)[C@H](CC(=O)O)NC(=O)[C@@H]2CCCN2C1=O [SEQ ID NO: 292]	5660	40	30
CC[C@H](C)[C@@H]1NC(=O)[C@@H]2CSSC[C@@H]3NC(=O)[C@H](C(C)C)NC(=O)[C@H](CC(C)C)NC(=O)[C@H](CC(N)=O)NC(=O)[C@@H]4CCCN4C(=O)[C@H](CCCNC(=N)N)NC(=O)[C@H](CSSC[C@H](NC(=O)[C@@H](N)CC(=O)O)C(=O)N[C@@H](CC(C)C)C(=O)NCC(=O)N[C@@H](Cc4ccccc4)C(=O)N[C@@H](Cc4ccc(C(=O)O)cc4)C(=O)N[C@@H](CCCNC(=N)N)C(=O)N[C@@H](CCCCN)C(=O)N2)NC(=O)[C@H](CSSC[C@@H](C(=O)N[C@@H](CCCCN)C(=O)N[C@@H](Cc2ccc(O)cc2)C(=O)N[C@H](C(=O)N[C@@H](Cc2ccccc2)C(N)=O)C(C)C)NC(=O)[C@H](Cc2c[nH]c4ccccc24)NC(=O)[C@H](CCCCN)NC(=O)[C@H](Cc2c[nH]cn2)NC(=O)[C@H]([C@@H](C)O)NC(=O)[C@H](CCCNC(=N)N)NC(=O)[C@H](CO)NC3=O)NC(=O)[C@H](CCCCN)NC(=O)[C@H](CC(=O)O)NC(=O)[C@H](CC(N)=O)NC(=O)[C@H](CC(=O)O)NC(=O)[C@@H]2CCCN2C1=O [SEQ ID NO: 293]	11100	15800	13800
CC[C@H](C)[C@H](NC(=O)[C@H](CCC(=O)O)NC(=O)[C@H](Cc1ccc(O)cc1)NC(=O)[C@H](CCCCN)NC(=O)[C@@H]1CSSC[C@@H]2NC(=O)[C@H](CCCCN)NC(=O)[C@H](CC(=O)O)NC(=O)[C@H](CC(N)=O)NC(=O)[C@H](CC(=O)O)NC(=O)[C@@H]3CCCN3C(=O)[C@H](CO)NC(=O)[C@@H]3CSSC[C@H](NC(=O)[C@H](C(C)C)NC(=O)[C@H](CC(C)C)NC(=O)[C@H](CC(N)=O)NC(=O)[C@@H]4CCCN4C(=O)[C@H](CCCNC(=N)N)NC(=O)[C@H](CSSC[C@H](NC(=O)[C@@H](N)CC(=O)O)C(=O)N[C@@H](CC(C)C)C(=O)NCC(=O)N[C@@H](Cc4ccccc4)C(=O)N[C@@H](CCSC)C(=O)N[C@@H](CCCNC(=N)N)C(=O)N[C@@H](CCCCN)C(=O)N3)NC2=O)C(=O)N[C@@H](CO)C(=O)N[C@@H](CCCNC(=N)N)C(=O)N[C@@H](CCCCN)C(=O)N[C@@H](Cc2c[nH]cn2)C(=O)N[C@@H](CCCCN)C(=O)N[C@@H](Cc2c[nH]c3ccccc23)C(=O)N1)C(N)=O [SEQ ID NO: 467] (H-DCLGFMRKCSPDNDKCCRPNLVCSRKHKWCKYEI-NH2; disulfide 2-17, 9-23, 16-30)	7210	4340	1150

Reference: patent publication US9340590B2 (priority 2011, dated 2016)
